For 8 molecules, IC50 results are on record in ChEMBL document CHEMBL5120898, “Bathiapeptides: Polythiazole-Containing Peptides from a Marine Biofilm-Derived Bacillus sp” (J Nat Prod, 2022).

What all share (format): functional, cell-based
One test concerns HepG2. Briefly: Cytotoxicity against human HepG2 cells assessed as inhibition of cell growth incubated for 24 hrs by MTT assay. Particulars: HepG2, 24 h. (Formazan colour is commonly taken as a measure of viable cells.)
For a further test, the system named is MCF7. Briefly: Cytotoxicity against human MCF7 cells assessed as inhibition of cell growth incubated for 24 hrs by MTT assay. Conditions: MCF7, 24 h.
The subject of the next test is MGC-803. Briefly: Cytotoxicity against human MGC-803 cells assessed as inhibition of cell growth incubated for 24 hrs by MTT assay. Particulars: MGC-803, 24 h.
In a further test the test system is HeLa. In words: Cytotoxicity against human HeLa cells assessed as inhibition of cell growth incubated for 24 hrs by MTT assay.

Molecules are shown by their SMILES. Where only a bound is given, the exact number is not on record here.

One may read the IC50 as the concentration at which inhibition is half-maximal. As for `CC[C@H](C)[C@H](NC(=O)[C@@H](Cc1ccccc1)NC(C)=O)C(=O)N[C@H](C)c1nc(-c2nc(-c3nc(C(=O)O)cs3)cs2)cs1`, the 50% inhibitory concentration (IC50) in the test with HepG2, in the test with MCF7, in the test on MGC-803 and with HeLa was greater than 50 µM in each case.
Turning to `CC[C@H](C)[C@H](NC(=O)[C@H](N)Cc1ccccc1)C(=O)N[C@H](C)c1nc(-c2nc(-c3nc(C(=O)O)cs3)cs2)cs1`, the half-inhibitory concentration (IC50) in the test with HepG2, in the test on MCF7, in the test on MGC-803 and with HeLa was greater than 50 µM throughout.
For `CC[C@H](C)[C@@H]1NC(=O)[C@@H](Cc2ccccc2)NC(=O)c2csc(n2)-c2csc(n2)-c2csc(n2)[C@H](C)NC1=O`, the half-inhibitory concentration (IC50) in the test on HepG2 was 13.1 µM; with MCF7, 10 µM; in the test with MGC-803, 16.4 µM; in the test with HeLa, 29.6 µM.
In the case of `CC(C)[C@@H]1NC(=O)[C@@H](Cc2ccccc2)NC(=O)c2csc(n2)-c2csc(n2)-c2csc(n2)[C@@H](C)NC1=O`, the IC50 stood at 5 µM in the test on HepG2, 3 µM in the test with MCF7, 2.9 µM in the test with MGC-803 and 8 µM in the test on HeLa.
Taken in the same sequence, the figures for `CC[C@H](C)[C@@H]1NC(=O)[C@@H](Cc2ccccc2)NC(=O)c2csc(n2)-c2csc(n2)-c2csc(n2)CNC1=O` were 4.5 µM, 2.4 µM, 5.8 µM and 4.6 µM.
The corresponding values for `CC[C@H](C)[C@@H]1NC(=O)[C@@H](Cc2ccccc2)NC(=O)c2csc(n2)-c2csc(n2)[C@@H](C)NC1=O` are greater than 50 µM, greater than 50 µM, greater than 50 µM and greater than 50 µM.
Taken in the same sequence, the figures for `CC[C@H](C)[C@@H]1NC(=O)[C@@H](Cc2ccccc2)NC(=O)c2csc(n2)-c2csc(n2)-c2csc(n2)[C@@H](CO)NC1=O` were greater than 50 µM, 12.4 µM, 15.7 µM and 16.3 µM.
As for `CC[C@H](C)[C@@H]1NC(=O)[C@@H](Cc2ccccc2)NC(=O)c2csc(n2)-c2csc(n2)-c2csc(n2)[C@@H](C)NC1=O`, the concentration for half-maximal inhibition (IC50) in the test on HepG2 was 4.1 µM; in the test on MCF7, 0.5 µM; in the test on MGC-803, 0.8 µM; in the test on HeLa, 1.5 µM.
